Results reported in US20090075902A1, “INHIBITING THE SIGNS OF AGING BY INHIBITING NF-KAPPA B ACTIVATION” (priority 2007, published 2009).

Tests used:
Ercc^−/Δ mouse = assay: Delayed onset of frailty in a mouse treated with Compound A; assay type: in vivo; conditions: 5 MG/KG of Compound A, n=1; oil control n=3
Description: Delayed onset of frailty in an Ercc^−/Δ mouse treated with 5 MG/KG of Compound A

NF-κB activation = conditions: (Wen 2006); cited from earlier work
Ercc1^−/Δ mice [1] = assay: Third series: double blinded twin study, 8K-NBD versus negative control 8K-mNBD; assay type: in vivo, mouse
Description: FIG. 12. Treatment schedule for third series of experiments; treatment with 8K-NBD or negative control 8k-mNBD.
In a third series of experiments, a different treatment regimen was used (FIG. 12) in which treatment with 8K-NBD or a negative control peptide, 8K-mNBD (having a mutated sequence, […] (SEQ ID NO:7)) was initiated earlier than the above regimens at approximately 5 weeks (8K-NBD or 8K-mNBD, 10 mg/kg) administered intraperitoneally three times per week). This was a double blinded twin study designed to eliminate genetic and environmental variables.
FIG. 13 presents a table showing the phenotypic changes associated with aging in mice treated with 8k-NBD or negative control 8k-mNBD. The overall aging score was improved by 30 percent in 8K-NBD versus 8K-mNBD-treated mice, indicating a significant delay in the onset of age-related symptoms corresponding to over a decade in human life.
FIG. 15A-D presents a comparison of levels of hepatocellular senescence, as measured by staining for p16 protein, in young and senescent wild-type mice as well as Ercc1^−/Δ mice treated with either 8K-NBD or negative control 8K-mNBD according to the regimen of FIG. 12 at the age of 18 weeks.

Ercc1^−/Δ mice [2] = assay: Second series: 8K-NBD in an older symptomatic mouse, liver and skeletal muscle histopathology; assay type: in vivo
Description: FIG. 10. Exposure paradigm for pilot study to determine the impact of 8K-NBD on histopathologic changes in progeroid Ercc1^−/Δ mice. 8K-NBD was dissolved in 5% DMSO in PBS and injected i.p.
In a second series of experiments, an older Ercc1^−/Δ mouse, which already had progeroid symptoms, was chronically exposed to 8K-NBD then euthanized at 20 wk of age to determine if 8K-NBD affected histopathologic changes associated with aging (FIG. 10). Liver and skeletal muscle (SKM) were dissected, fixed, sectioned and stained. Tissues were compared to age-matched untreated Ercc1^−/Δ. The liver of Ercc1^−/Δ mice display large polyploid nuclei (FIG. 11A, 10×) characteristic of senescent hepatocytes (Gupta, 2000). […] This is consistent with previous reports that in mouse models of numerous inflammatory myopathies, persistent NF-κB activity is associated with necrotic and regenerative changes (Monici et al., 2003).

Ercc1^−/Δ mice [3] = assay: Pilot study: chronic 8K-NBD treatment, onset and severity of progeroid symptoms; assay type: in vivo, mouse
Description: FIG. 6. Exposure paradigm for pilot study to determine the impact of 8K-NBD on quality of life in progeroid Ercc1^−/Δ mice. 8K-NBD was dissolved in 5% DMSO in PBS and injected intraperitoneally. A littermate Ercc1^−/Δ mouse was treated with an equal volume of vehicle only (PBS). The study was concluded at 19 wks when the mouse treated with vehicle only became profoundly ataxic and cachectic, requiring euthanization.
Studies were performed to determine if inhibition of NF-κB activation ameliorates accelerated aging in Ercc1^−/Δ mice. An Ercc1^−/Δ mouse was chronically treated with 8K-NBD peptide as described in FIG. 6. The age at onset of numerous progeroid symptoms were recorded (Table II). Ataxia and priapism, both caused by neurodegeneration (Rolig and McKinnon, 2000), were delayed by 3 wks and 1.5 wks respectively in the mouse treated with 8K-NBD.
Motor strength and coordination were measured weekly in the mice by testing their ability to cross a balance beam (FIG. 9A) and to remain suspended from a wire (FIG. 9B).

mice = conditions: cited from earlier work
[4] = 8K-NBD 10 mg/kg i.p. chronically, versus sibling treated with vehicle only
[5] = 8K-NBD versus vehicle-treated mouse

## Cl.O=C1Nc2nc(-c3c(O)cccc3OCC3CC3)cc([C@@H]3CCCNC3)c2CO1 [Compound A]
Ercc^−/Δ mouse
  Ataxia (onset): 19.3
  Dystonia (onset): 13.7
  Kyphosis (onset): 14.3
  Trembling (onset): 12.7
  Wasting (onset): 19.7

## COc1c(Cl)cc2c([nH]c3cnccc32)c1NC(=O)c1cccnc1C [ML120B, (N-6-chloro-7-methoxy-9H-β-carbolin-8-yl)-2-methylnicotinamide]
NF-κB activation
  IC50: 60 nM

## KKKKKKKK-GG-TALDWSWLQTE (SEQ ID NO:2) (KKKKKKKKGGTALDWSWLQTE) [8K-NBD]
Ercc1^−/Δ mice [1]; 8K-NBD versus 8K-mNBD, 10 mg/kg i.p. three times per week from approximately 5 weeks
  Improvement of overall aging score: 30%
Ercc1^−/Δ mice [1]; at the age of 18 weeks
  Hepatocellular senescence, p16 protein staining pattern: more closely resembles that of a young, healthy mouse
Ercc1^−/Δ mice [1]; at the age of 18 weeks, relative to 8K-mNBD-treated animal
  Neurodegeneration, GFAP staining pattern: more closely resembles that of the young wild-type mouse
Ercc1^−/Δ mice [2]; at 20 wk of age, untreated Ercc1^−/Δ SKM showed necrosis
  Skeletal muscle (SKM) pathology: devoid of pathologic changes
Ercc1^−/Δ mice [2]; liver at 20 wk of age, versus age-matched untreated Ercc1^−/Δ
  Hepatocyte cytoplasm to nuclear ratio: much higher
Ercc1^−/Δ mice [2]; liver at 20 wk of age, suggestive of liver regeneration
  Hepatic architecture: effaced
Ercc1^−/Δ mice [3]; [4]
  Delay of onset of ataxia: 3 wks
  Delay of onset of priapism: 1.5 wks
Ercc1^−/Δ mice [3]; 8K-NBD versus untreated and vehicle-treated mice
  Body weight maintenance: maintained weight longer
Ercc1^−/Δ mice [3]; [5]
  Ambulation and general appearance: improved
  Severity of dystonia, trembling and kyphosis: significantly reduced
Ercc1^−/Δ mice [3]; 8K-NBD versus vehicle-treated sibling
  Delay in onset of symptoms (cachexia, loss of muscle mass and vision): ≥ 3 wk
Ercc1^−/Δ mice [3]; tested weekly, versus untreated mice (n=7)
  Motor strength and coordination (balance beam, suspension from a wire): tended to perform better
Ercc1^−/Δ mice [3]; within the 19 wk period of the study, vehicle mouse showed them by 16 wks of age
  Onset of cachexia, loss of muscle mass and vision: did not arise

## KKKKKKKKGGTALDASALQTE (SEQ ID NO:7) [8K-mNBD, reference compound]
Ercc1^−/Δ mice [1]; at 17 weeks of age, compared with 8K-NBD-treated sibling and wild-type littermate
  Degree of osteoporotic changes (micro-CT of vertebra): appears greatest
Ercc1^−/Δ mice [1]; at the age of 18 weeks
  Hepatocellular senescence, p16 protein staining pattern: more closely resembles the pattern in senescent wild-type hepatocytes

## TALDWSWLQTE; SEQ ID NO:1 [NBD peptide]
mice
  Toxicity on systemic administration: not toxic
